Measurements from PubChem BioAssay AID1963875 (Molecular Pharmacology Branch, DTP, NCI, 2024).

Test system: KRAS-mutant PDC complex spheroid viability
Assay: Anticancer human tumor 186277-243-T-J2-PDC patient-derived colon adenocarcinoma cell line growth inhibition [KRAS2]
Settings: for viability, T/C: stronger effect = lower value
Description: Multicellular complex tumor spheroid response to RAS pathway inhibitors in combination with a targeted agents in patient-derived cell lines with oncogenic KRAS variants from multiple cancer types
A high-throughput screen of multi-cell type tumor spheroids was designed to identify active combinations of targeted small molecules and KRAS pathway inhibitors. Complex spheroids include a stromal component modeled by human endothelial cells (HUVEC) and fibroblasts modeled by human mesenchymal stem cells (MSCs). The concentration ranges selected for each drug and investigational agent were based upon clinically achievable concentrations if the clinical Cmax of the agent was known.
Compounds. The drugs and investigational agents: BI-3406 (NSC825286), BAY-293 (NSC824723), batoprotafib (TNO155; NSC825523), sotorasib (AMG 510; NSC818433), MRTX1257 (NSC819558), elimusertib (BAY 1895344; NSC800525), molibresib (GSK525762; NSC774829), temuterkib (LY3214996; NSC803410), venetoclax (NSC766270), alisertib (NSC759677), olaparib (NSC753686), talazoparib (NSC767125), erdafitinib (NSC781556), ipatasertib (NSC767898), cabozantinib (NSC761068), nintedanib (NSC756659), abemaciclib (NSC768073), docetaxel (NSC628503), trametinib (NSC758246), and sapanisertib (NSC764658) were obtained from the National Cancer Institute (NCI) Developmental Therapeutics Program Chemical Repository. The FDA-approved anticancer drug set is available from the Developmental Therapeutics Program. […] The stock solutions were prepared in dimethyl sulfoxide (DMSO, Sigma-Aldrich, St. Louis, MO, cat. D2650) at 800-fold the tested concentration and stored at -70 degrees C prior to their use. All drugs and investigational agents were tested over a range starting from a high concentration at or near the clinical Cmax and decreasing in half-log increments. If the clinical Cmax for an agent had not been determined, the highest concentration tested was 10 microM.
Cell Culture. All cells were maintained in an incubator at 37 degrees C and 5% CO2 with 95% humidity. The PDC lines were cultured according to standard operating procedures established by the NCI PDMR (https://pdmr.cancer.gov/sops/default.htm). Briefly, all PDCs were thawed and cultured in Matrigel-coated flasks prepared with a working solution of 1X Ham's F-12 nutrient mix, without supplementation (Invitrogen, Waltham, MA, cat. 11765054), 100 U/mL penicillin-streptomycin (Invitrogen, cat. 15140122), and 2.5% Matrigel (Corning Inc., Corning, NY, cat. 354248) for the first three passages. All PDCs were cultured in complete DMEM/F-12 media containing advanced DMEM/F-12 (Invitrogen, cat. 12634028), 4.9% defined fetal bovine serum, heat inactivated (HyClone Laboratories Inc., Logan, UT, cat. SH30070.03HI), 389 ng/mL hydrocortisone (Sigma-Aldrich, cat. H4001), 9.7 ng/mL human EGF recombinant protein (Invitrogen, cat. PHG0313), 23.4 microg/mL adenine (Sigma-Aldrich, cat. A2786), 97.3 U/mL penicillin-streptomycin (Invitrogen, cat. 15140122), 1.9 mM L-glutamine (Invitrogen, cat. 25030081), and 9.7 microM Y-27632 dihydrochloride (Tocris Bioscience, Bristol, United Kingdom, cat. 1254). The PDCs were cultured in complete DMEM/F12 media without 9.7 microM Y-27632 dihydrochloride for at least two passages prior to the screen. The established cell line HOP-62 was cultured in RPMI 1640 medium, HEPES (Invitrogen, cat. 22400105) with 10% defined fetal bovine serum (HyClone Laboratories Inc., cat. SH30070.03) and 2 mM L-glutamine (Invitrogen, cat. 25030081). The pooled donor HUVEC were cultured in endothelial cell growth medium 2 (PromoCell, Heidelberg, Germany, cat. C-22011) and the hMSC were cultured in mesenchymal stem cell growth medium 2 (PromoCell, cat. C-28009). For all experiments, HUVEC and hMSC were used at passages </=5, while the malignant cell lines were used at passages </=15. […]

[1] = curve of first compound, second compound 0.1 µM
[2] = curve of first compound, second compound 0.316 µM
[3] = curve of first compound, second compound 1 µM
[4] = curve of first compound, second compound 3.16 µM
[5] = curve of first compound, second compound 10 µM
[6] = second compound 0.1 µM, first compound 0.000316 µM
[7] = second compound 0.1 µM, first compound 0.001 µM
[8] = second compound 0.1 µM, first compound 0.00316 µM
[9] = second compound 0.1 µM, first compound 0.01 µM
[10] = second compound 0.1 µM, first compound 0.0316 µM
[11] = second compound 0.1 µM, first compound 0.1 µM
[12] = second compound 0.316 µM, first compound 0.000316 µM
[13] = second compound 0.316 µM, first compound 0.001 µM
[14] = second compound 0.316 µM, first compound 0.00316 µM
[15] = second compound 0.316 µM, first compound 0.01 µM
[16] = second compound 0.316 µM, first compound 0.0316 µM
[17] = second compound 0.316 µM, first compound 0.1 µM
[18] = second compound 1 µM, first compound 0.000316 µM
[19] = second compound 1 µM, first compound 0.001 µM
[20] = second compound 1 µM, first compound 0.00316 µM
[21] = second compound 1 µM, first compound 0.01 µM
[22] = second compound 1 µM, first compound 0.0316 µM
[23] = second compound 1 µM, first compound 0.1 µM
[24] = second compound 3.16 µM, first compound 0.000316 µM
[25] = second compound 3.16 µM, first compound 0.001 µM
[26] = second compound 3.16 µM, first compound 0.00316 µM
[27] = second compound 3.16 µM, first compound 0.01 µM
[28] = second compound 3.16 µM, first compound 0.0316 µM
[29] = second compound 3.16 µM, first compound 0.1 µM
[30] = second compound 10 µM, first compound 0.000316 µM
[31] = second compound 10 µM, first compound 0.001 µM
[32] = second compound 10 µM, first compound 0.00316 µM
[33] = second compound 10 µM, first compound 0.01 µM
[34] = second compound 10 µM, first compound 0.0316 µM
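Throughout, for viability, T/C: viability read after seven days of compound exposure; 100% = DMSO vehicle-treated spheroids so lower means less viable.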

CN(C)C/C=C/C(=O)Nc1cc2c(Nc3ccc(F)c(Cl)c3)ncnc2cc1O[C@H]1CCOC1 + C=CC(=O)N1CCN(c2nc(=O)n(-c3c(C)ccnc3C(C)C)c3nc(-c4c(O)cccc4F)c(F)cc23)C(C)C1
IC50 [1]: > 100 nM | IC50 [2]: > 100 nM | IC50 [3]: > 100 nM | IC50 [4]: > 100 nM | IC50 [5]: 49.8 nM | viability, T/C [6]: 105% | viability, T/C [7]: 93.7% | viability, T/C [8]: 106% | viability, T/C [9]: 102% | viability, T/C [10]: 122% | viability, T/C [11]: 109% | viability, T/C [12]: 95.8% | viability, T/C [13]: 97.7% | viability, T/C [14]: 99.5% | viability, T/C [15]: 98.4% | viability, T/C [16]: 107% | viability, T/C [17]: 112% | viability, T/C [18]: 91.2% | viability, T/C [19]: 106% | viability, T/C [20]: 91.5% | viability, T/C [21]: 101% | viability, T/C [22]: 113% | viability, T/C [23]: 105% | viability, T/C [24]: 93.1% | viability, T/C [25]: 103% | viability, T/C [26]: 100% | viability, T/C [27]: 98.1% | viability, T/C [28]: 97.7% | viability, T/C [29]: 74.4% | viability, T/C [30]: 79.9% | viability, T/C [31]: 68.8% | viability, T/C [32]: 77.3% | viability, T/C [33]: 66.3% | viability, T/C [34]: 55.2% | viability, T/C (second compound 10 µM, first compound 0.1 µM): 40.6%

CC(=O)Nc1cccc(-n2c(=O)n(C3CC3)c(=O)c3c(Nc4ccc(I)cc4F)n(C)c(=O)c(C)c32)c1 + CC1OCC2(CCN(c3cnc(Sc4ccnc(N)c4Cl)c(N)n3)CC2)C1N
IC50 [1]: 0.368 nM | IC50 [2]: 0.199 nM | IC50 [3]: 0.128 nM | IC50 [4]: < 0.1 nM | IC50 [5]: < 0.1 nM | viability, T/C (second compound 0.1 µM, first compound 0.0001 µM): 116% | viability, T/C [6]: 56.1% | viability, T/C [7]: 9.68% | viability, T/C [8]: 5% | viability, T/C [9]: 1.6% | viability, T/C [10]: 1.06% | viability, T/C (second compound 0.316 µM, first compound 0.0001 µM): 86.3% | viability, T/C [12]: 25.9% | viability, T/C [13]: 5.13% | viability, T/C [14]: 3.78% | viability, T/C [15]: 3.34% | viability, T/C [16]: 0.76% | viability, T/C (second compound 1 µM, first compound 0.0001 µM): 60.8% | viability, T/C [18]: 10.9% | viability, T/C [19]: 4.8% | viability, T/C [20]: 1.82% | viability, T/C [21]: 0.88% | viability, T/C [22]: 0.76% | viability, T/C (second compound 3.16 µM, first compound 0.0001 µM): 24.4% | viability, T/C [24]: 5.11% | viability, T/C [25]: 2.57% | viability, T/C [26]: 1.18% | viability, T/C [27]: 0.59% | viability, T/C [28]: 0.6% | viability, T/C (second compound 10 µM, first compound 0.0001 µM): 10% | viability, T/C [30]: 3.24% | viability, T/C [31]: 1.99% | viability, T/C [32]: 0.72% | viability, T/C [33]: 0.68% | viability, T/C [34]: 0.55%

CC1COCCN1c1cc(-c2ccnn2C)c2ccnc(-c3ccn[nH]3)c2n1 (configuration not stated)
viability, T/C (compound 0.0316 µM): 29.2% [middle of 5 runs] | viability, T/C (compound 0.1 µM): 7.22% [middle of 5 runs] | viability, T/C (compound 0.316 µM): 4.63% [middle of 5 runs] | viability, T/C (compound 1 µM): 3.65% [middle of 5 runs] | viability, T/C (compound 3.16 µM): 4.09% [middle of 5 runs]

Cn1ncnc1[C@H]1c2n[nH]c(=O)c3cc(F)cc(c23)N[C@@H]1c1ccc(F)cc1
viability, T/C (compound 0.000316 µM): 99% [middle of 5 runs] | viability, T/C (compound 0.001 µM): 98% [middle of 5 runs] | viability, T/C (compound 0.00316 µM): 101% [middle of 5 runs] | viability, T/C (compound 0.01 µM): 98.1% [middle of 5 runs] | viability, T/C (compound 0.0316 µM): 91% [middle of 5 runs] | viability, T/C (compound 0.1 µM): 80.8% [middle of 5 runs] | IC50 (curve of compound): > 100 nM

COc1cc(Nc2ncc3c(n2)-c2ccc(Cl)cc2C(c2c(F)cccc2OC)=NC3)ccc1C(=O)O + C=CC(=O)N1CCN(c2nc(OCC3CCCN3C)nc3c2CCN(c2cccc4cccc(C)c24)C3)CC1CC#N
IC50 (curve of first compound, second compound 0.0316 µM): < 31.6 nM | IC50 [1]: < 31.6 nM | IC50 [2]: < 31.6 nM | IC50 [3]: < 31.6 nM | IC50 [4]: < 31.6 nM | viability, T/C (second compound 0.0316 µM, first compound 0.0316 µM): 34% | viability, T/C (second compound 0.0316 µM, first compound 0.1 µM): 32.2% | viability, T/C (second compound 0.0316 µM, first compound 0.316 µM): 30% | viability, T/C (second compound 0.0316 µM, first compound 1 µM): 34.5% | viability, T/C (second compound 0.0316 µM, first compound 3.16 µM): 43.3% | viability, T/C (second compound 0.0316 µM, first compound 10 µM): 48% | viability, T/C [10]: 34.2% | viability, T/C [11]: 31.7% | viability, T/C (second compound 0.1 µM, first compound 0.316 µM): 30.3% | viability, T/C (second compound 0.1 µM, first compound 1 µM): 31.2% | viability, T/C (second compound 0.1 µM, first compound 3.16 µM): 42.8% | viability, T/C (second compound 0.1 µM, first compound 10 µM): 44.2% | viability, T/C [16]: 34.3% | viability, T/C [17]: 28.6% | viability, T/C (second compound 0.316 µM, first compound 0.316 µM): 27.4% | viability, T/C (second compound 0.316 µM, first compound 1 µM): 30.2% | viability, T/C (second compound 0.316 µM, first compound 3.16 µM): 40.2% | viability, T/C (second compound 0.316 µM, first compound 10 µM): 42.5% | viability, T/C [22]: 28% | viability, T/C [23]: 26.4% | viability, T/C (second compound 1 µM, first compound 0.316 µM): 25.9% | viability, T/C (second compound 1 µM, first compound 1 µM): 25.3% | viability, T/C (second compound 1 µM, first compound 3.16 µM): 29.5% | viability, T/C (second compound 1 µM, first compound 10 µM): 21.6% | viability, T/C [28]: 0.25% | viability, T/C [29]: 0.19% | viability, T/C (second compound 3.16 µM, first compound 0.316 µM): 0.19% | viability, T/C (second compound 3.16 µM, first compound 1 µM): 0.17% | viability, T/C (second compound 3.16 µM, first compound 3.16 µM): 0.69% | viability, T/C (second compound 3.16 µM, first compound 10 µM): 0.19%
